Results reported in ChEMBL document CHEMBL5726221, “4,6-substituted-pyrazolo[1,5-a]pyrazines as janus kinase inhibitors” (2019).

Key:
[1] = target: Non-receptor tyrosine-protein kinase TYK2 (Homo sapiens, UniProt P29597); assay: Tyk2 Inhibition Assay: Compounds of Formula I were screened for their ability to inhibit Tyk2 using the general enzyme inhibition assay method, in which the assay mixture contained 1 mM ATP, 8 μM Omnia Y12 peptide (Catalog # IVGN KPZ3121C; Invitrogen Corporation, Carlsbad, Calif.) and 1 nM Tyk2 in a total volume of 25 μL. Human Tyk2 kinase domain, comprising amino acids 886 to 1187 with 10 additional histidine residues (histidine tag) on the carboxy terminus, was expressed and purified from bacculovirus in-house at Array BioPharma Inc. (Boulder, Colo.). The histidine tag was cleaved after purification using standard conditions.
[2] = target: T1, Tyrosine-protein kinase JAK3 (Homo sapiens, UniProt P52333); assay: JAK3 Inhibition Assay: Compounds of Formula I were screened for their ability to inhibit JAK3 using the general enzyme inhibition assay method, in which the assay mixture contained 1 mM ATP, 10 μM Omnia® Y7 peptide (Catalog # IVGN KNZ3071C, Invitrogen Corporation, Carlsbad, Calif.) and 2 nM JAK3 in a total volume of 25 μL. JAK3 was purchased from Invitrogen Corporation, Carlsbad, Calif. (catalog # IVGN PV4080).
T1 sequence (P52333 whole entry): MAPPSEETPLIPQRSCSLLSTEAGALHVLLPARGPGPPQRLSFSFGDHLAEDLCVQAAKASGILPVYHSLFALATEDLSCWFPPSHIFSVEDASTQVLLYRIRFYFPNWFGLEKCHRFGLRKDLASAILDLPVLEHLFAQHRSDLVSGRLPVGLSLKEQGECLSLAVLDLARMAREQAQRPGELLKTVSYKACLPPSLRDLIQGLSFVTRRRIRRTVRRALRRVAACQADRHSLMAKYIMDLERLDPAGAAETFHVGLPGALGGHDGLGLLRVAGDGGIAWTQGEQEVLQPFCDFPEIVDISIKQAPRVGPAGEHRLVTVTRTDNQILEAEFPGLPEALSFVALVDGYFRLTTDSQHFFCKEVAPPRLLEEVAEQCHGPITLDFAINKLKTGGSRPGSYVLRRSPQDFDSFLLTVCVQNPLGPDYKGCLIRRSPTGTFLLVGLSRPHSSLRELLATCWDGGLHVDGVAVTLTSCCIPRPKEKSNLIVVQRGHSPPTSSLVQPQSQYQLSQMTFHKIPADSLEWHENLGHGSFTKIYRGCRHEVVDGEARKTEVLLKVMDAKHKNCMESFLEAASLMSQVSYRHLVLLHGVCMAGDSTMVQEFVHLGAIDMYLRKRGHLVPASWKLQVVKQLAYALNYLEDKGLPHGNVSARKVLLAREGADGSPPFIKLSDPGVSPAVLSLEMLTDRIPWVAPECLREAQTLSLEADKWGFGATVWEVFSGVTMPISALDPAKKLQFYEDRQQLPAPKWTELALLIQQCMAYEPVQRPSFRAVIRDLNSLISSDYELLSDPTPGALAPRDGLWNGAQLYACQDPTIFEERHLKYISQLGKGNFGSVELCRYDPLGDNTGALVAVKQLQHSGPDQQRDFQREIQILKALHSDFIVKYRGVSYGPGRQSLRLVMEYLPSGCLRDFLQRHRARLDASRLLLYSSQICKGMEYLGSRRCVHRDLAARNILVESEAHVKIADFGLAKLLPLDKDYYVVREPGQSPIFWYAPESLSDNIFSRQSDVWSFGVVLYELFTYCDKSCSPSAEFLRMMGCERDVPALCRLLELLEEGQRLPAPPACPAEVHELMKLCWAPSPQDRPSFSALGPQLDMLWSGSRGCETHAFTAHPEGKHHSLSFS

Chain of Non-receptor tyrosine-protein kinase TYK2 (P29597 whole entry, the tested form may be a part): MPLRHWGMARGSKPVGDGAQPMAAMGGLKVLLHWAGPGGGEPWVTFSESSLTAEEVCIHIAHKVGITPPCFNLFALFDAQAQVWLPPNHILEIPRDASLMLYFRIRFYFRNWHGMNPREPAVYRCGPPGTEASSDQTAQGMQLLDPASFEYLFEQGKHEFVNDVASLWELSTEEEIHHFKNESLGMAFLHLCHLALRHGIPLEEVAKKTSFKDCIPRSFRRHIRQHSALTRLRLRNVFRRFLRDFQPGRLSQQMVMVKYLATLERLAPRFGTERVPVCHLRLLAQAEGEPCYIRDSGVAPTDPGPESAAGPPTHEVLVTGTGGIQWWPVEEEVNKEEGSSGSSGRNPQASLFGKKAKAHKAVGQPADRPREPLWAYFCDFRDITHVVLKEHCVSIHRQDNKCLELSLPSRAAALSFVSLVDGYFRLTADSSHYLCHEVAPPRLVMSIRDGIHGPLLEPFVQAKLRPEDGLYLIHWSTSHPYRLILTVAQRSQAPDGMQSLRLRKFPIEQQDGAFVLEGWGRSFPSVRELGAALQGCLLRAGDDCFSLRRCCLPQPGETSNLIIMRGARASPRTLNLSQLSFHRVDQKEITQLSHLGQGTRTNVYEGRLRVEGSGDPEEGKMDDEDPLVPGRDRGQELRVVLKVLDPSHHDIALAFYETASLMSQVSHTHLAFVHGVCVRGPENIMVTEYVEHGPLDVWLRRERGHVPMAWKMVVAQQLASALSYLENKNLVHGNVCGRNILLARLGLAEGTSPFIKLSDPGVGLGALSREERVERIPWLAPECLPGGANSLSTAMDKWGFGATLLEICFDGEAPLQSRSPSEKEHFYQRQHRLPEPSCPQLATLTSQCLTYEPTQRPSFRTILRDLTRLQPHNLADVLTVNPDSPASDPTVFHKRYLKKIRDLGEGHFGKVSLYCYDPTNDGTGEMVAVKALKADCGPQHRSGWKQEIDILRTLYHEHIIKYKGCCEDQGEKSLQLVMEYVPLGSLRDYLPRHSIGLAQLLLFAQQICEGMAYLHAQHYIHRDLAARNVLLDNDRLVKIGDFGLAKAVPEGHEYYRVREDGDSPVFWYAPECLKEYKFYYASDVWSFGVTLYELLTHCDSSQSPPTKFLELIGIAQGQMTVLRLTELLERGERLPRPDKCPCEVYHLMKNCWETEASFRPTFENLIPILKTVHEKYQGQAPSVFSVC

| IC50 [1] | IC50 [2] | SMILES |
| --- | --- | --- |
| in the range around 0.055 µM | in the range around 5.5 µM | CCC(CC)n1cc(-c2nc(-c3cnn([C@H]4C[C@@H](O)[C@@H](O)C4)c3)cn3nccc23)cn1 |
|  | in the range around 5.5 µM | CCC(CC)n1cc(-c2nc(-c3cnn([C@H]4C[C@@](O)(CO)C4)c3)cn3nccc23)cn1 |
|  | in the range around 5.5 µM | CCC(CC)n1cc(-c2nc(-c3cnn(CC4CC(CO)C4)c3)cn3nccc23)cn1 (centres undefined) |
